Measured values taken from the supplement of paper PMC10331698.
± gives the standard deviation of the averaged measurements.

Experiments:
Assay in all cases: level (log10 ratio to DMSO vehicle control); higher = higher biomarker level / cell amount than vehicle control
Conditions in all cases: in DMSO
[1] = compound: CNS(=O)(=O)C(F)(F)C(F)(F)C(F)(F)C(F)(F)C(F)(F)C(F)(F)C(F)(F)C(F)(F)F [N-Methylperfluorooctanesulfonamide]
Procedure: (§1)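 BioMAP Diversity Plus panel of 12 human primary cell co-culture systems (3C, 4H, LPS, SAg, BT, BF4T, BE3C, CASM3C, HDF3CGF, KF3CT, MyoF, Mphg). Compounds were added 1 h before stimulation and left for 24 h (MyoF 48 h; BT 72 h for soluble read-outs or 6 d for IgG). Biomarkers were read by ELISA, cytotoxicity by SRB, PBMC viability and proliferation by Alamar Blue. Each well value was divided by the mean of 8 DMSO control wells on the same plate and log10 transformed; duplicate blinded samples were tested at 4 concentrations.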

[2] = compound: O=C(O)C(F)(F)C(F)(F)C(F)(F)C(F)(F)C(F)(F)C(F)(F)C(F)(F)C(F)(F)C(F)(F)C(F)(F)C(F)(F)C(F)(F)F [Perfluorotridecanoic acid]
Procedure: as §1

Perfluorohexanoic acid = compound: O=C(O)C(F)(F)C(F)(F)C(F)(F)C(F)(F)C(F)(F)F [Perfluorohexanoic acid]
Procedure: as §1

[3] = compound: O=C(O)CCC(F)(F)C(F)(F)C(F)(F)C(F)(F)C(F)(F)F [2H,2H,3H,3H-Perfluorooctanoic acid]
Procedure: as §1

[4] = compound: O=P(O)(O)CCC(F)(F)C(F)(F)C(F)(F)C(F)(F)C(F)(F)C(F)(F)C(F)(F)C(F)(F)F [((Perfluorooctyl)ethyl)phosphonic acid]
Procedure: as §1

1H,1H-Heptafluorobutanol = compound: OCC(F)(F)C(F)(F)C(F)(F)F [1H,1H-Heptafluorobutanol]
Procedure: as §1

| Test System | level (log10) ([1]; 6700 nM) | level (log10) ([1]; 20000 nM) | level (log10) ([1]; 60000 nM) | level (log10) ([2]; 1500 nM) | level (log10) ([2]; 4400 nM) | level (log10) ([2]; 13000 nM) | level (log10) ([2]; 40000 nM) | level (log10) (Perfluorohexanoic acid; 6700 nM) | level (log10) (Perfluorohexanoic acid; 20000 nM) | level (log10) (Perfluorohexanoic acid; 60000 nM) | level (log10) ([3]; 6700 nM) | level (log10) ([3]; 20000 nM) | level (log10) ([3]; 60000 nM) | level (log10) ([4]; 6700 nM) | level (log10) ([4]; 20000 nM) | level (log10) ([4]; 60000 nM) | level (log10) (1H,1H-Heptafluorobutanol; 6700 nM) | level (log10) (1H,1H-Heptafluorobutanol; 20000 nM) | level (log10) (1H,1H-Heptafluorobutanol; 60000 nM) |
| --- | --- | --- | --- | --- | --- | --- | --- | --- | --- | --- | --- | --- | --- | --- | --- | --- | --- | --- | --- |
| SAg:CXCL9/MIG | -0.006 ± 0.017 | -0.0065 ± 0.0021 | -0.013 ± 0.011 | -0.002 ± 0.0028 | -0.013 | -0.016 ± 0.0028 | 0.0035 ± 0.018 | -0.0005 ± 0.0064 | -0.001 ± 0.0085 | 0.0055 ± 0.005 | -0.0005 ± 0.015 | -0.0105 ± 0.018 | 0 ± 0.0057 | 0.001 ± 0.0028 | 0.006 ± 0.0085 | -0.0115 ± 0.023 | -0.003 ± 0.031 | -0.001 ± 0.018 | 0.018 ± 0.014 |
| BE3C:HLA-DR | -0.0225 ± 0.0064 | -0.0445 ± 0.012 | -0.039 ± 0.041 | -0.0105 ± 0.04 | -0.0325 ± 0.013 | -0.0355 ± 0.0078 | -0.0195 ± 0.019 | -0.0025 ± 0.0021 | -0.011 ± 0.0028 | -0.012 ± 0.0099 | 0 ± 0.0042 | -0.009 ± 0.0071 | -0.0175 ± 0.012 | -0.025 ± 0.0099 | -0.031 ± 0.013 | -0.0075 ± 0.013 | -0.0035 ± 0.0021 | 0.0105 ± 0.00071 | 0.02 ± 0.03 |
| BT:Secreted IgG | 0.001 ± 0.0028 | -0.0745 ± 0.0092 | -0.306 ± 0.21 | 0.001 ± 0.042 | -0.0025 ± 0.067 | -0.027 ± 0.052 | -0.029 ± 0.02 | 0.0085 ± 0.00071 | 0.0155 ± 0.03 | -0.023 ± 0.061 | 0.016 ± 0.0028 | -0.033 ± 0.098 | -0.212 ± 0.17 | 0.001 ± 0.02 | 0.0005 ± 0.0035 | -0.02 ± 0.0057 | 0.0305 ± 0.0078 | 0.0055 ± 0.053 | 0.027 ± 0.023 |
| SAg:CD38 | -0.012 ± 0.0085 | -0.0255 ± 0.012 | -0.0515 ± 0.0064 | -0.017 ± 0.014 | -0.037 ± 0.02 | -0.0245 ± 0.018 | -0.027 ± 0.0028 | 0.003 ± 0.023 | -0.004 ± 0.0014 | -0.0005 ± 0.025 | -0.0215 ± 0.037 | -0.024 ± 0.041 | -0.0595 ± 0.03 | -0.015 ± 0.024 | -0.0155 ± 0.005 | -0.0945 ± 0.023 | -0.028 ± 0.064 | -0.0145 ± 0.015 | -0.0115 ± 0.088 |
| BE3C:CXCL8/IL-8 | -0.112 ± 0.0021 | -0.118 ± 0.0042 | -0.2 ± 0.078 | -0.002 ± 0.045 | 0.01 ± 0.045 | -0.0215 ± 0.00071 | 0.0115 ± 0.00071 | 0.0095 ± 0.042 | 0.0135 ± 0.00071 | 0.017 ± 0.021 | 0.033 ± 0.042 | 0.004 ± 0.041 | 0.0035 ± 0.036 | 0.0305 ± 0.033 | 0.019 ± 0.028 | -0.001 ± 0.048 | 0.0275 ± 0.063 | 0 ± 0.04 | 0.003 ± 0.033 |
| SAg:PBMC Cytotoxicity | 0.0065 ± 0.018 | 0.034 ± 0.0042 | 0.044 ± 0.045 | -0.0045 ± 0.021 | 0.0025 ± 0.0021 | -0.061 ± 0.042 | -0.0085 ± 0.028 | -0.0155 ± 0.046 | 0.002 ± 0.0028 | 0.009 ± 0.073 | 0.0125 ± 0.0078 | 0.0255 ± 0.039 | 0.0115 ± 0.039 | -0.025 ± 0.017 | -0.04 ± 0.0042 | -0.037 ± 0.037 | -0.0165 ± 0.012 | -0.024 ± 0.024 | 0.0155 ± 0.047 |
